The values below come from US9096871B2, “Variant CBH I polypeptides with reduced product inhibition” (BP Corporation North America Inc., priority 2010, dated 2015).

Converted amounts (≈) assume the structure as drawn.

What all share (format): biochemical
The subject of assay [1] is CBH I polypeptide BD29555, wild type, SEQ ID NO:1. In words: 4-Methylumbelliferyl lactoside (4-MUL) assay, cellobiose inhibition, wild type BD29555. The protocol:
(§1) 4-Methylumbelliferyl Lactoside (4-MUL) Assay: This assay measures the activity of CBH I on the fluorogenic substrate 4-MUL (also known as MUL). Assays were run in a costar 96-well black bottom plate, where reactions were initiated by the addition of 4-MUL to enzyme in buffer (2 mM 4-MUL in 200 mM MES pH 6). Enzymatic rates were monitored by fluorescent readouts over five minutes on a SPECTRAMAX™ plate reader (ex/em 365/450 nm). Data in the linear range was used to calculate initial rates (Vo).
(§2) Cellobiose Tolerance Assays (or Cellobiose Inhibition Assays): Tolerance to cellobiose (or inhibition caused by cellobiose) was tested in two ways in the CBH I assays. A direct-dose tolerance method can be applied to all of the CBH I assays (i.e., 4-MUL, PASC, and/or bagasse assays), and entails the exogenous addition of a known amount of cellobiose into assay mixtures. A different indirect method entails the addition of an excess amount of β-glucosidase (BG) to PASC and bagasse assays (typically, 1 mg β-glucosidase/g solids loaded). […]
(§3) Cellobiose dose response curves of the wild-type and R273K/R422K variant of BD29555 were obtained during the 4-MUL assay. Enzyme rates (Vo) were measured in the presence of different concentrations of cellobiose (200 mM MES pH 6, 25° C.). Rates were measured in quadruplicate.

For assay [2], the system named is BD29555 CBH I variant R273A (parent SEQ ID NO:1). In words: Library screening, 4-MUL assay in presence and absence of cellobiose, BD29555 R273A. The following applies: library screen, 250 g/L cellobiose (so in the source), gluconolactone present. Here is the method:
as §1
(§4) Cellobiose Tolerance Assays (or Cellobiose Inhibition Assays): Tolerance to cellobiose (or inhibition caused by cellobiose) was tested in two ways in the CBH I assays. A direct-dose tolerance method can be applied to all of the CBH I assays (i.e., 4-MUL, PASC, and/or bagasse assays), and entails the exogenous addition of a known amount of cellobiose into assay mixtures. […]
(§5) The wild type CBH I polypeptide BD29555 was mutagenized to identify variants with improved product tolerance. […] This product-release-site library was designed based on residues directly interacting with the cellobiose product in an attempt to identify variants with weakened interactions with cellobiose from which the product would be released more readily than the wild type enzyme. […]

Assay [3] relates to BD29555 CBH I variant R273K/Y274Q/D281K/Y410H/P411G/R422K (parent SEQ ID NO:1). As to the kind of experiment: 4-MUL assay, cellobiose inhibition, BD29555 R273K/Y274Q/D281K/Y410H/P411G/R422K variant. The following applies: 250 mg/L cellobiose, (activity with cellobiose)/(activity without cellobiose)*100. Here is the method: as §1
as §2, with “loaded). BG will enzymatically hydrolyze the cellobiose generated during these assays; therefore, CBH I activity in the presence of BG can be taken as a measure of activity in the absence of cellobiose. Furthermore, when activity in the presence and absence of BG are similar, this indicates tolerance to cellobiose.” for “loaded).”

For assay [4], the target named is T. reesei CBH I variant R268K/R411K (parent SEQ ID NO:2) (Trichoderma reesei, UniProt A0A024RXP8, R268K/R411K). As to the kind of experiment: 4-MUL assay, cellobiose inhibition, T. reesei CBH I R268K/R411K. The conditions noted are these: read-out: % Activity in 4-MUL Assay (+/−Cellobiose), 250 mg/L cellobiose, (activity with cellobiose)/(activity without cellobiose)*100. Here is the method:
as §1, §2
(§6) Cellobiose product tolerant substitutions were introduced into T. reesei CBH I (SEQ ID NO:2). A panel of variants with single and double alanine and lysine substitutions at R268 and R411 were expressed and analyzed. […]

For assay [5], the system named is BD29555 CBH I variant R273K/R422K (parent SEQ ID NO:1; full length SEQ ID NO:301, mature SEQ ID NO:302). In words: PASC assay, cellobiose inhibition, BD29555 R273K/R422K variant. The conditions noted are these: 10 g/L cellobiose, PASC substrate, FIG. 3. Here is the method: (§7) Phosphoric Acid Swollen Cellulose (PASC) Assay: This assay measures the activity of CBH I using PASC as the substrate. During the assay, the concentration of PASC is monitored by a fluorescent signal derived from calcofluor binding to PASC (ex/em 365/440 nm). The assay is initiated by mixing enzyme (15 μl) and reaction buffer (85 μl of 0.2% PASC, 200 mM MES, pH 6), and then incubating at 35° C. while shaking at 225 RPM. After 2 hours, one reaction volume of calcofluor stop solution (100 μg/ml in 500 mM glycine pH 10) is added and fluorescence read-outs obtained (ex/em 365/440 nm).
as §2, with “loaded). BG will enzymatically hydrolyze the cellobiose generated during these assays; therefore, CBH I activity in the presence of BG can be taken as a measure of activity in the absence of cellobiose.” for “loaded).”

For assay [6], the system named is CBH I polypeptide BD29555, wild type, SEQ ID NO:1. In words: Phosphoric acid swollen cellulose (PASC) assay, cellobiose inhibition, wild type BD29555. The conditions noted are these: PASC substrate, FIG. 3. The protocol: as §7
as §2, with “loaded). BG will enzymatically hydrolyze the cellobiose generated during these assays; therefore, CBH I activity in the presence of BG can be taken as a measure of activity in the absence of cellobiose.” for “loaded).”

Assay [7] concerns the target T1, T. reesei CBH I, wild type, SEQ ID NO:2 (Trichoderma reesei, UniProt P62694, INS458P/R459P). In words: 4-MUL assay, cellobiose inhibition, wild type T. reesei CBH I. The following applies: read-out: % Activity in 4-MUL Assay (+/−Cellobiose). Here is the method:
as §1, §2, §6

Assay [8] relates to BD29555 CBH I variant R273Q (parent SEQ ID NO:1). As to the kind of experiment: Library screening, 4-MUL assay in presence and absence of cellobiose, BD29555 R273Q. The conditions noted are these: library screen, 250 g/L cellobiose (so in the source), gluconolactone present. Here is the method:
as §1, §4, §5

Assay [9] has as its target T1, T. reesei CBH I, wild type, SEQ ID NO:2. In words: PASC assay, cellobiose inhibition, wild type T. reesei CBH I. The protocol:
as §7
as §2, with “loaded). BG will enzymatically hydrolyze the cellobiose generated during these assays; therefore, CBH I activity in the presence of BG can be taken as a measure of activity in the absence of cellobiose.” for “loaded).”

For assay [10], the target named is T. reesei CBH I variant R268A/R411K (parent SEQ ID NO:2) (Trichoderma reesei, UniProt A0A024RXP8, R268A/R411K). In words: 4-MUL assay, cellobiose inhibition, T. reesei CBH I R268A/R411K. The conditions noted are these: read-out: % Activity in 4-MUL Assay (+/−Cellobiose), 250 mg/L cellobiose, (activity with cellobiose)/(activity without cellobiose)*100. Here is the method: as §1, §2, §6
Sequence of T. reesei CBH I variant R268A/R411K (parent SEQ ID NO:2) (A0A024RXP8 18-514 R268A/R411K): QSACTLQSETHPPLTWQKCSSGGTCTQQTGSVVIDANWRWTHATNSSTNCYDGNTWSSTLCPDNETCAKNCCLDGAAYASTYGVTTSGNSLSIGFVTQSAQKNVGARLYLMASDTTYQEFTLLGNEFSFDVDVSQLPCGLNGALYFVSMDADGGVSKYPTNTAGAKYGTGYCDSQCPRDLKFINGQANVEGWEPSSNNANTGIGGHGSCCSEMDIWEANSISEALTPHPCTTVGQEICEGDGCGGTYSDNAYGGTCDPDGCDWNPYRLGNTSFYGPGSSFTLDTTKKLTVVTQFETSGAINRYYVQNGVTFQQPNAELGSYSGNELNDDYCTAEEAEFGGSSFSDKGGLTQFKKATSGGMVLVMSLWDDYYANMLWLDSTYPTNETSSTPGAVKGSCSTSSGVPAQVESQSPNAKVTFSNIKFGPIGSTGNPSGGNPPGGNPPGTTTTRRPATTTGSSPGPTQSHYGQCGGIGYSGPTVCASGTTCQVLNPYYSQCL

Assay [11] relates to BD29555 CBH I variant R273K/R422K (R268K/R411K by T. reesei numbering; parent SEQ ID NO:1; full length SEQ ID NO:301, mature SEQ ID NO:302). In words: 4-MUL assay, cellobiose inhibition, BD29555 R273K/R422K variant. Here is the method:
as §1
Cellobiose Tolerance Assays (or Cellobiose Inhibition Assays): Tolerance to cellobiose (or inhibition caused by cellobiose) was tested in two ways in the CBH I assays. A direct-dose tolerance method can be applied to all of the CBH I assays (i.e., 4-MUL, PASC, and/or bagasse assays), and entails the exogenous addition of a known amount of cellobiose into assay mixtures. A different indirect method entails the addition of an excess amount of β-glucosidase (BG) to PASC and bagasse assays (typically, 1 mg β-glucosidase/g solids loaded). BG will enzymatically hydrolyze the cellobiose generated during these assays; therefore, CBH I activity in the presence of BG can be taken as a measure of activity in the absence of cellobiose. Furthermore, when activity in the presence and absence of BG are similar, this indicates tolerance to cellobiose.
as §5, §3

Assay [12] addresses T. reesei CBH I variant R268K/R411A (parent SEQ ID NO:2) (Trichoderma reesei, UniProt A0A024RXP8, R268K/R411A). In words: 4-MUL assay, cellobiose inhibition, T. reesei CBH I R268K/R411A. The conditions noted are these: read-out: % Activity in 4-MUL Assay (+/−Cellobiose), 250 mg/L cellobiose, (activity with cellobiose)/(activity without cellobiose)*100. The protocol: as §1, §2, §6

The target of assay [13] is T. reesei CBH I variant R268A/R411A (parent SEQ ID NO:2) (Trichoderma reesei, UniProt A0A024RXP8, R268A/R411A). In words: 4-MUL assay, cellobiose inhibition, T. reesei CBH I R268A/R411A. The conditions noted are these: read-out: % Activity in 4-MUL Assay (+/−Cellobiose), 250 mg/L cellobiose, (activity with cellobiose)/(activity without cellobiose)*100. The protocol: as §1, §2, §6
Sequence of T. reesei CBH I variant R268A/R411A (parent SEQ ID NO:2) (A0A024RXP8 18-514 R268A/R411A): as the sequence (A0A024RXP8 18-514 R268A/R411K) above, with K394A counted along it

T1 sequence (P62694 other isoform, or with tags, fused parts or gaps INS458P/R459P): as the sequence (A0A024RXP8 18-514 R268A/R411K) above, with A251R, K394R counted along it
Sequence of T. reesei CBH I variant R268K/R411K (parent SEQ ID NO:2) (A0A024RXP8 18-514 R268K/R411K): as the sequence (A0A024RXP8 18-514 R268A/R411K) above, with A251K counted along it
Sequence of T. reesei CBH I variant R268K/R411A (parent SEQ ID NO:2) (A0A024RXP8 18-514 R268K/R411A): as the sequence (A0A024RXP8 18-514 R268A/R411K) above, with A251K, K394A counted along it

Turning to `OC[C@H]1O[C@@H](O[C@H]2[C@H](O)[C@@H](O)C(O)O[C@@H]2CO)[C@H](O)[C@@H](O)[C@@H]1O` (stereo partly drawn) [cellobiose], the “% Activity in 4-MUL Assay (+/−Cellobiose)” value worked out at 25% in assay [1] (250 mg/L cellobiose, (activity with cellobiose)/(activity without cellobiose)*100, wild type BD29555); 78% in assay [3]; 95% in [11] (250 mg/L cellobiose, (activity with cellobiose)/(activity without cellobiose)*100, R273K/R422K). Also, the “half maximal inhibitory concentration (IC50 value)” value in assay [1] (4-MUL substrate, 200 mM MES pH 6, 25° C., rates in quadruplicate, FIG. 1A) was determined as 60 µg/mL. Also, the product tolerance result in [2] is “enhanced product tolerance”; in [8], “enhanced product tolerance”; in assay [11] (library screen, 4-MUL assay, 250 g/L cellobiose (so in the source), gluconolactone present), “enhanced product tolerance”. The activity at 250 µg/mL is greater than 90% in assay [4]; 23% in assay [7]; greater than 90% in [10]; greater than 90% in assay [12]; greater than 90% in [13]. In assay [5], the inhibition by cellobiose result is “little inhibition”. For the same compound, the figures for the IC50 in assay [6] and in [9] were 2200 µg/mL (≈ 6.43 mM) and 8.76 mM, respectively. Further, the “cellobiose concentration at which inhibition starts” value in assay [6] is recorded as “around 1 g/L”; in [9] (PASC substrate, FIG. 3) it was “around 1 g/L”. Further, the “tolerance to cellobiose (dose response)” value in assay [11] (4-MUL substrate, 200 mM MES pH 6, 25° C., FIG. 1B) was “tolerant to cellobiose up to 250 mg/L”.
